Experimental data published in paper PMC3961306, “Comparison of the Cancer Gene Targeting and Biochemical Selectivities of All Targeted Kinase Inhibitors Approved for Clinical Use” (PLoS ONE, 2014).

How the values were obtained:
Assay in all cases: Kinase profiling in a biochemical assay panel (mobility shift assays and ELISA), %-inhibition at 1 μM; selectivity entropy
[1] = molecular target: panel of more than 300 wild-type and mutant kinases (313 kinase panel) (Homo sapiens, UniProt P41279)
[2] = molecular target: T1, panel of more than 300 wild-type and mutant kinases (313 kinase panel) (Homo sapiens, UniProt Q96BR1)
T1 sequence (Q96BR1 1-496): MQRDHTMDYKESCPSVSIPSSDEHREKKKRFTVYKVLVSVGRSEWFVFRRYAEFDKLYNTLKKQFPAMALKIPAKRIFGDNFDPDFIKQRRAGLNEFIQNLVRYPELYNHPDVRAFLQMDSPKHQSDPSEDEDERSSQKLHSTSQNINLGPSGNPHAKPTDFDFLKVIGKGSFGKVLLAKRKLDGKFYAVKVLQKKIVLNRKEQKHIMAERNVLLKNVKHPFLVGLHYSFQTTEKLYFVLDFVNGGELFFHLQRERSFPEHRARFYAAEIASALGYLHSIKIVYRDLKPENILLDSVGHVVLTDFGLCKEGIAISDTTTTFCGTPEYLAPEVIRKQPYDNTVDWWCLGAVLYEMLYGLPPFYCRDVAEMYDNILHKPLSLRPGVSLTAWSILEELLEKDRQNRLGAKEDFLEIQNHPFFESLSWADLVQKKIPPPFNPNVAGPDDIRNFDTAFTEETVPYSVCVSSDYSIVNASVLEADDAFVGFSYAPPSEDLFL

[3] = molecular target: panel of more than 300 wild-type and mutant kinases (313 kinase panel) (Homo sapiens, UniProt P49760)
[4] = molecular target: panel of more than 300 wild-type and mutant kinases (313 kinase panel) (Homo sapiens, UniProt Q13464)
[5] = molecular target: T2, panel of more than 300 wild-type and mutant kinases (313 kinase panel) (Homo sapiens, UniProt P52333)
T2 sequence (P52333 1-1124): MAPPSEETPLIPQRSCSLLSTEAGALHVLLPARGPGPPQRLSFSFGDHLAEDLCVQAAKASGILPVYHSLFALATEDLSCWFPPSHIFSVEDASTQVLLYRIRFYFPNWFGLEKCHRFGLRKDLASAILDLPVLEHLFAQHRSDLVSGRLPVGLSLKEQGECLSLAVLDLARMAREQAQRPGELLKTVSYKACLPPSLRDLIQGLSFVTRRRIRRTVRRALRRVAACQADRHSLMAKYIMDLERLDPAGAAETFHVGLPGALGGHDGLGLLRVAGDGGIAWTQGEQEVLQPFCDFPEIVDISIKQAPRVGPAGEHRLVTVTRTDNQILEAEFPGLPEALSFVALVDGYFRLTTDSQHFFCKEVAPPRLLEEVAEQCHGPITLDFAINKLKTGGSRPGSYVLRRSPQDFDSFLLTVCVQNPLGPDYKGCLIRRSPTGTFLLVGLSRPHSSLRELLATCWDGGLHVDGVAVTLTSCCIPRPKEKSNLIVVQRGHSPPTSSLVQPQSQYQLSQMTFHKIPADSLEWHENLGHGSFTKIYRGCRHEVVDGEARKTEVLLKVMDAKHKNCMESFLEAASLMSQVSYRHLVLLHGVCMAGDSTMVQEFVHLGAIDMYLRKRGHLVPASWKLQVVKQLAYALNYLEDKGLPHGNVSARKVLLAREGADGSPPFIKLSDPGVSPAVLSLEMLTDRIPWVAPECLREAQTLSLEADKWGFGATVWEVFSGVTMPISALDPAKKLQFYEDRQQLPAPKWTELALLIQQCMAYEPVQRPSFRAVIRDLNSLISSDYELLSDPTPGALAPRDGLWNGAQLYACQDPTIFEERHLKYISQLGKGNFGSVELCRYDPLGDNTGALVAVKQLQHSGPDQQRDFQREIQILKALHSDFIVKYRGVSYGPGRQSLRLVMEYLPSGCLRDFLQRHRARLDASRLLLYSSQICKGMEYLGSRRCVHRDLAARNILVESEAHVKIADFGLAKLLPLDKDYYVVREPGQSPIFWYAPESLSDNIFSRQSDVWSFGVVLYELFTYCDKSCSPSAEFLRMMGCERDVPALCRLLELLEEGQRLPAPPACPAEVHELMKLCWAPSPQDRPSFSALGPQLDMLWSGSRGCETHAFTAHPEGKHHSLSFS

[6] = molecular target: panel of more than 300 wild-type and mutant kinases (313 kinase panel) (Homo sapiens, UniProt Q14012)
[7] = molecular target: panel of more than 300 wild-type and mutant kinases (313 kinase panel) (Homo sapiens, UniProt Q14289)
[8] = molecular target: panel of more than 300 wild-type and mutant kinases (313 kinase panel) (Homo sapiens, UniProt P49840)
[9] = molecular target: panel of more than 300 wild-type and mutant kinases (313 kinase panel) (Homo sapiens, UniProt P31751)
[10] = molecular target: panel of more than 300 wild-type and mutant kinases (313 kinase panel) (Homo sapiens, UniProt P11309)

Chain of panel of more than 300 wild-type and mutant kinases (313 kinase panel) (Homo sapiens, UniProt P41279) (P41279 whole entry, change not shown): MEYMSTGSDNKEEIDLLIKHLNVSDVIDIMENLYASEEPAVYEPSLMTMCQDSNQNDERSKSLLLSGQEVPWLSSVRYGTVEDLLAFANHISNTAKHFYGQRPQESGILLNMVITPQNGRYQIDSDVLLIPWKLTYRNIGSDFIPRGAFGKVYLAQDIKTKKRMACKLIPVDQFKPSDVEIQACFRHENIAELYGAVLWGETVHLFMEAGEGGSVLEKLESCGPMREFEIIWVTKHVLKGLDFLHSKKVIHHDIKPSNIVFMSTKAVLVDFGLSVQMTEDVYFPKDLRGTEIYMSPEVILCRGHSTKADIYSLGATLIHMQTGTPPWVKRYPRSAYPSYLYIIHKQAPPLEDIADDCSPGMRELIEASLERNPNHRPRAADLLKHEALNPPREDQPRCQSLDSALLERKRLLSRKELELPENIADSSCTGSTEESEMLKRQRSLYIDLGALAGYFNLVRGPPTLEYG
Chain of panel of more than 300 wild-type and mutant kinases (313 kinase panel) (Homo sapiens, UniProt Q14289) (Q14289 whole entry, change not shown): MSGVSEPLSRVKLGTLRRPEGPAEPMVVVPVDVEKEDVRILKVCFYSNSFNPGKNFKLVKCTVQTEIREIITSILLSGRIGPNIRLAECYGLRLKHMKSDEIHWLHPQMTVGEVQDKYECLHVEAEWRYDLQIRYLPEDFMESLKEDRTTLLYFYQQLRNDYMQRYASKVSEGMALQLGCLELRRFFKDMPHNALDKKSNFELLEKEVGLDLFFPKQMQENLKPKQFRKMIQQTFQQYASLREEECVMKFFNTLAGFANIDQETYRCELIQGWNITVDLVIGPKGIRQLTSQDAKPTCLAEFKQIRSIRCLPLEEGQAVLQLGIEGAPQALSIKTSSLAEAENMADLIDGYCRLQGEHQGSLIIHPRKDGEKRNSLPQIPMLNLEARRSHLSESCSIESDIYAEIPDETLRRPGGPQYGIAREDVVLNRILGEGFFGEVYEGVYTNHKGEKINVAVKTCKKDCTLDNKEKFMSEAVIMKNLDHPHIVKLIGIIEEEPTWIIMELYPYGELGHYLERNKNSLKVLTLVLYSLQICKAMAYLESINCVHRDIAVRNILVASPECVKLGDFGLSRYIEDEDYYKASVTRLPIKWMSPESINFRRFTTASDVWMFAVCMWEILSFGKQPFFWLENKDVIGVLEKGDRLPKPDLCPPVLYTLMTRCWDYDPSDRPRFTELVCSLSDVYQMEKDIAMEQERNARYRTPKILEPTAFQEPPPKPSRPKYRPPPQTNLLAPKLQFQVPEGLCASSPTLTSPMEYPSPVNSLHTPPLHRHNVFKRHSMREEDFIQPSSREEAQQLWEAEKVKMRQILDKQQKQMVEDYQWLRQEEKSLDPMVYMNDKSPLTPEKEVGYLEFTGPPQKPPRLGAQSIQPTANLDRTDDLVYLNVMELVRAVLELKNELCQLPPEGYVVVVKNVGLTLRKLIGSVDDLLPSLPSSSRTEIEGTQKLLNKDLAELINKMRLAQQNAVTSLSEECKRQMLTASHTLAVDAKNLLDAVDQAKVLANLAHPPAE
Chain of panel of more than 300 wild-type and mutant kinases (313 kinase panel) (Homo sapiens, UniProt P31751) (P31751 whole entry, change not shown): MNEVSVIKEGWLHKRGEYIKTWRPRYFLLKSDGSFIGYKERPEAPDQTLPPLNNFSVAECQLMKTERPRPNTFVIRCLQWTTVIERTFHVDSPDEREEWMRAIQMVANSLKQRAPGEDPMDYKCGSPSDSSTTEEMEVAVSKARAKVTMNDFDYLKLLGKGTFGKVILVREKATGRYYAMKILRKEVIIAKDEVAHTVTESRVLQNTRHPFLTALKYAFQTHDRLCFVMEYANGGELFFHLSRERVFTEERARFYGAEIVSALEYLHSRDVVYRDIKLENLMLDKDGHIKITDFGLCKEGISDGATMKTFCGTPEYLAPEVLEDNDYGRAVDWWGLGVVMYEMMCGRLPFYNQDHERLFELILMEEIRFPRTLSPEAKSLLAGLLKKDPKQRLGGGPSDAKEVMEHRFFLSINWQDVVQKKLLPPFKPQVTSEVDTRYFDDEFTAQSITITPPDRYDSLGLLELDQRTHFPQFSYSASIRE

SMILES | %-inhibition of COT ([1]; kinase COT, compound at 1 μM) | %-inhibition of SGK3 ([2]; kinase SGK3, 1 μM) | %-inhibition, CLK2 ([3]; kinase CLK2, 1 μM compound) | %-inhibition of ROCK1 ([4]; kinase ROCK1, 1 μM) | %-inhibition of JAK3 ([5]; kinase JAK3, compound at 1 μM) | %-inhibition of PYK2 ([7]; kinase PYK2, 1 μM) | %-inhibition of PIM1 ([10]; kinase PIM1, 1 μM) | %-inhibition, CaMK1α ([6]; kinase CaMK1α, 1 μM compound) | %-inhibition of GSK3α ([8]; kinase GSK3α, compound at 1 μM) | %-inhibition, AKT2 ([9]; kinase AKT2, 1 μM compound) | also measured
CN(C)C/C=C/C(=O)Nc1cc2c(Nc3ccc(F)c(Cl)c3)ncnc2cc1O[C@H]1CCOC1 [afatinib] | -7.4% | – | – | – | – | – | – | – | – | – | –
COc1cc(Nc2c(C#N)cnc3cc(OCCCN4CCN(C)CC4)c(OC)cc23)c(Cl)cc1Cl [bosutinib] | 7% | -7% | -0.431% | 1.43% | 67% | 89% | – | – | – | – | %-inhibition, CaMK1α ([6]; 1 µM): 9%; %-inhibition of GSK3α ([8]; 1 µM): 9%; %-inhibition, AKT2 ([9]; 1 µM): -2.57%
COc1cc2nccc(Oc3ccc(NC(=O)C4(C(=O)Nc5ccc(F)cc5)CC4)cc3)c2cc1OC [cabozantinib] | 18% | -1.1% | -5.26% | 1.28% | 2.34% | 91% | -10% | -0.897% | -10% | -3.78% | –
C[C@@H](Oc1cc(-c2cnn(C3CCNCC3)c2)cnc1N)c1c(Cl)ccc(F)c1Cl [crizotinib] | 11% | -3% | -6% | 3.39% | 77% | – | -7% | 0.734% | -2.56% | -2.67% | –
CC(C)(C)c1nc(-c2cccc(NS(=O)(=O)c3c(F)cccc3F)c2F)c(-c2ccnc(N)n2)s1 [dabrafenib] | 9% | 0.0854% | 0.875% | – | 22% | 56% | – | – | – | – | –
Cc1nc(Nc2ncc(C(=O)Nc3c(C)cccc3Cl)s2)cc(N2CCN(CCO)CC2)n1 [dasatinib] | – | 1.18% | – | – | – | – | – | 1.38% | – | – | –
C#Cc1cccc(Nc2ncnc3cc(OCCOC)c(OCCOC)cc23)c1 [erlotinib] | – | – | – | – | – | – | – | – | – | – | %-inhibition of PIM1 ([10]; 1 µM): 6%; %-inhibition of SGK3 ([2]; 1 µM): 8%; %-inhibition, CLK2 ([3]; 1 µM): 8%; %-inhibition of ROCK1 ([4]; 1 µM): 1.9%; %-inhibition of JAK3 ([5]; 1 µM): 55%; %-inhibition, CaMK1α ([6]; 1 µM): 2.51%; %-inhibition of COT ([1]; 1 µM): -0.486%; %-inhibition of PYK2 ([7]; 1 µM): 8%; %-inhibition of GSK3α ([8]; 1 µM): -4%; %-inhibition, AKT2 ([9]; 1 µM): 8%
CO[C@H]1C[C@@H]2CC[C@@H](C)[C@@](O)(O2)C(=O)C(=O)N2CCCC[C@H]2C(=O)O[C@H]([C@H](C)C[C@@H]2CC[C@@H](OCCO)[C@H](OC)C2)CC(=O)[C@H](C)/C=C(\C)[C@@H](O)[C@@H](OC)C(=O)[C@H](C)C[C@H](C)/C=C/C=C/C=C/1C [everolimus] | -3% | -6.4% | -17% | -3.7% | -4.43% | 1.49% | -9% | -8% | -14% | -3.78% | –
O=S(=O)(c1cccc2cnccc12)N1CCCNCC1 [fasudil] | 12% | 7% | -0.292% | 83% | 4.46% | 1.79% | 3% | -5.45% | 0.911% | -8% | –
Cc1ccc(C(=O)Nc2ccc(CN3CCN(C)CC3)c(C(F)(F)F)c2)cc1C#Cc1cnc2cccnn12 [ponatinib] | -2.42% | -1.1% | -3.36% | 39% | 98% | 99% | – | – | – | – | –
N#CC[C@H](C1CCCC1)n1cc(-c2ncnc3[nH]ccc23)cn1 [ruxolitinib] | -3.66% | -5% | 15% | – | – | 68% | -8% | – | 9% | -3.68% | %-inhibition of ROCK1 ([4]; 1 µM): 66%
CCN(CC)CCNC(=O)c1c(C)[nH]c(/C=C2\C(=O)Nc3ccc(F)cc32)c1C [sunitinib] | – | – | 97% | 9% | – | 94% | – | – | – | – | –
